Activity calls are given as the source filed them.
Legend:
[1] = NIH-3T3 fibroblast cytotoxicity, dose response, cytotoxicity control, cell-based, fluorescence, Alamar Blue, secondary assay (AID 2327); format: functional;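 further: NIH-3T3 mouse fibroblasts cultured with fluconazole at 8 µg/mL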
[2] = test system: Streptococcus sp. 'group A'; assay: Streptococcus pyogenes SK(-)GAS viability under kanamycin – luminescence, BacTiterGlo, confirmation, counter-screen for streptokinase expression inhibitor project, dose response (AID 1900); format: functional, organism-based
[3] = target: T1, Streptokinase A (Streptococcus pyogenes serotype M1, UniProt P10520); assay: viability-normalized secreted streptokinase activity reduction – plasminogen activation absorbance, OD405, dose response (AID 1914); format: functional, Streptococcus pyogenes M1 GAS;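 further: secreted streptokinase activity via plasminogen activation per viability signal from cell pellet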
T1 sequence (P10520 whole entry): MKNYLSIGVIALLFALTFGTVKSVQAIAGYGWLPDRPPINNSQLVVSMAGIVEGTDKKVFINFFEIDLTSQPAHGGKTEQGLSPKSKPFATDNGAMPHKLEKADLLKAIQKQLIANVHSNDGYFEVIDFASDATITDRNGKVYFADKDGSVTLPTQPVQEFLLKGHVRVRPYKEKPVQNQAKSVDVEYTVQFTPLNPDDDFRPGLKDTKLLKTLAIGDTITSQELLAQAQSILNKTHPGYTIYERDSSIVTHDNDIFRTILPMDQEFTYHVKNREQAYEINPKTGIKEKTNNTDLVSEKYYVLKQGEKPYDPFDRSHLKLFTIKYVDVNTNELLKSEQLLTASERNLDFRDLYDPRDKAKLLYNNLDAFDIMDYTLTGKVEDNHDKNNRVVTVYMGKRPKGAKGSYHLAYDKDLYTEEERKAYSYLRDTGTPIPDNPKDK

[4] = fluconazole-exposed Candida albicans growth modulators – fluorescence, retest, confirmation (AID 2467); format: functional, cell-based
[5] = target: T2, Serine/threonine-protein phosphatase (Candida dubliniensis (strain CD36 / CBS 7987 / NCPF 3949 / NRRLY-17841) (Yeast), UniProt B9W6M3); assay: blockers of CaCl2-induced CDRE-lacZ signaling – S. cerevisiae, luminescence, secondary, dose response (AID 2388); format: functional, cell-based;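 further: yeast reporter cells carrying a calcineurin-responsive lacZ construct stimulated with calcium chloride; luminescent beta-galactosidase reporter signal in whole cells rather than isolated phosphatase activity; potency for inhibition where a drop in reporter signal means calcineurin blockade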
T2 sequence (B9W6M3 whole entry): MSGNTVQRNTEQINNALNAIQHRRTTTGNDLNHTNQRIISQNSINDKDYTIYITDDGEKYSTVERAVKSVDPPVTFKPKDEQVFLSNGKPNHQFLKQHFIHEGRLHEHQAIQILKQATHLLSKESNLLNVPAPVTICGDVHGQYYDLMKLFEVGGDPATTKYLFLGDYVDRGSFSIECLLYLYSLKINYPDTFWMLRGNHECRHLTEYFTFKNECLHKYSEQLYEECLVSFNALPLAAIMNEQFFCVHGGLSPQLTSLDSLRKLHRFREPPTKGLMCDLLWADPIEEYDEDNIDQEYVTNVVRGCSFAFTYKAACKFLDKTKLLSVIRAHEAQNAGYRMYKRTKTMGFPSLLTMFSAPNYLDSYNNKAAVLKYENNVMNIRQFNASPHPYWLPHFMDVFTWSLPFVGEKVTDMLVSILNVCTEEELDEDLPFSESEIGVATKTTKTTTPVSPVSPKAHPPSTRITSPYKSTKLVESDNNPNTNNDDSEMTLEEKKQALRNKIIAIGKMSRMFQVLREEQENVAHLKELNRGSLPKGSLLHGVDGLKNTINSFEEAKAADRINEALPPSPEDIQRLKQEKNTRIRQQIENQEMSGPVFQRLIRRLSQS

[6] = test system: Streptococcus; assay: GAS UMAA2166 growth inhibition – luminescence, BacTiterGlo, counter-screen for streptokinase expression inhibitor project, dose response (AID 1915); format: functional, organism-based;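 further: potency for reduction of bacterial viability or growth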
[7] = THP-1 cell cytotoxicity, dose response, cytotoxicity control for non-replicating M. tuberculosis project (AID 489025); format: functional
[8] = Vero E6 cell cytotoxicity, dose response, cytotoxicity control for non-replicating M. tuberculosis project, secondary assay (AID 492998); format: functional, VeroE6; details: Vero C1008
[9] = cells; format: functional
[10] = target: ATP-dependent molecular chaperone HSP82 (Candida albicans (strain WO-1) (Yeast), UniProt C4YTQ8); assay: steroid-induced GRE reporter decrease in yeast – S. cerevisiae, luminescence, Hsp90 inhibitor project, dose response (AID 2400); format: functional, cell-based;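 further: beta-galactosidase luminescence from glucocorticoid response element reporter as proxy for Hsp90 function; inhibitor potency where signal loss means Hsp90 inhibition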
Chain of ATP-dependent molecular chaperone HSP82 (C4YTQ8 whole entry): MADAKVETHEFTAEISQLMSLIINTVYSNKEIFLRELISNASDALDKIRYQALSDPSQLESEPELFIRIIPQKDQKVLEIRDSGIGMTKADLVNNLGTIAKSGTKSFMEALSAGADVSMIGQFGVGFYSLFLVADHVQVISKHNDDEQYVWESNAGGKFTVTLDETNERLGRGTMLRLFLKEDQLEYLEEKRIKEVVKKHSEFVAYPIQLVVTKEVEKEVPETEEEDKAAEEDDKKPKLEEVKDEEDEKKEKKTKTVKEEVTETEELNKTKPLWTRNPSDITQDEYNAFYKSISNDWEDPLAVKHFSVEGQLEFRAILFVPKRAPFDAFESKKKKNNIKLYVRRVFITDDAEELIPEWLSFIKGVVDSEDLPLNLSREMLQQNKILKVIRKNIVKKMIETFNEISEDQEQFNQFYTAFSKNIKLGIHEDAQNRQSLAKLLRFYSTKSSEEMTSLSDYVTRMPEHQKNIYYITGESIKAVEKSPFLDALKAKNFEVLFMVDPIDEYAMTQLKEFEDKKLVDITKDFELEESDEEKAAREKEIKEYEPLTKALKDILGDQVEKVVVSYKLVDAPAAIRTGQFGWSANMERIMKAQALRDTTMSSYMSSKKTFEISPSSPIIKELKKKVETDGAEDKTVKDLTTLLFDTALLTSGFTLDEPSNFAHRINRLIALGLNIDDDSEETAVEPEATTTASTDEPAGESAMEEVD

[11] = target: FAD-linked sulfhydryl oxidase ALR (Homo sapiens, UniProt P55789); assay: ALR-catalysed DTT oxidation blockers – biochemical, H2O2 detection, luminescence, cherry-pick, dose response (AID 493248)
Chain of FAD-linked sulfhydryl oxidase ALR (P55789 whole entry): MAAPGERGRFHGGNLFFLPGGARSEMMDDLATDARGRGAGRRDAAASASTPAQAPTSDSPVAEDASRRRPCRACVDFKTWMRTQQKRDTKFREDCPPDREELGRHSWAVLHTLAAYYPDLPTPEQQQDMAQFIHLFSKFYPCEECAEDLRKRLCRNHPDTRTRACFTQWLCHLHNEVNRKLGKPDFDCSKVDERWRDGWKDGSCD

[12] = test system: HEK293; assay: cells; format: functional, cell-based; details: Homo sapiens
[13] = target: T3, Nuclear receptor subfamily 0 group B member 1 (Homo sapiens, UniProt P51843); assay: Luminescence-based cell-based high throughput dose response assay for inhibitors of the orphan nuclear receptor subfamily 0, group B, member 1 (DAX1; NR0B1). [Related pubchem assays (depositor defined):AID504766, AID504790]; format: functional
T3 sequence (P51843 whole entry): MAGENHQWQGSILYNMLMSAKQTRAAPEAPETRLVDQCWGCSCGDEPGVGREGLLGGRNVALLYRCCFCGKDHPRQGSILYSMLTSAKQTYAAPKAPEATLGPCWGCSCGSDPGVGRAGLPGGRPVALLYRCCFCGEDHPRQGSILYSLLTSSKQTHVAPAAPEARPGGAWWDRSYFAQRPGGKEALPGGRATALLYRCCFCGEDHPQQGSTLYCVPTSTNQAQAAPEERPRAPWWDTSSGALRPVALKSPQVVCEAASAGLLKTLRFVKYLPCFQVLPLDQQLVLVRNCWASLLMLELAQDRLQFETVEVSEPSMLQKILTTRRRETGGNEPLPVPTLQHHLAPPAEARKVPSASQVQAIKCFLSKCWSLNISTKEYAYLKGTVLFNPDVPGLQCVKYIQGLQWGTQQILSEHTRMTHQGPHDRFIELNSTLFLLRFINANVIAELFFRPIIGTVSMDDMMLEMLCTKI

[14] = target: Delta-type opioid receptor (Homo sapiens, UniProt P41143); assay: Counterscreen for agonists of heterodimerization of the mu 1 (OPRM1) and delta 1 (OPRD1) opioid receptors: Luminescence-based cell-based high throughput dose response assay to identify agonists of OPRD1 homodimerization. [Related pubchem assays (depositor defined):AID504326, AID504355, AID504692, AID504904, AID504905]; format: functional
Chain of Delta-type opioid receptor (P41143 whole entry): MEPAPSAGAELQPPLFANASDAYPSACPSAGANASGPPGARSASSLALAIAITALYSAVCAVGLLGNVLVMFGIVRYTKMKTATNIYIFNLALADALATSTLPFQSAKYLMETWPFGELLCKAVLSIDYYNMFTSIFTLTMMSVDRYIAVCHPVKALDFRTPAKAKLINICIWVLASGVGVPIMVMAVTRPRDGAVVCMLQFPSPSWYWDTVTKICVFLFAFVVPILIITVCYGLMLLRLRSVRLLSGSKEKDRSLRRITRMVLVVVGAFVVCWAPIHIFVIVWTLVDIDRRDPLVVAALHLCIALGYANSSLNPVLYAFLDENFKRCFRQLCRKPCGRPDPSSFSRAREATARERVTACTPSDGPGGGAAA

[15] = target: Mu-type opioid receptor (Homo sapiens, UniProt P35372); assay: Counterscreen for agonists of heterodimerization of the mu 1 (OPRM1) and delta 1 (OPRD1) opioid receptors: Luminescence-based cell-based high throughput dose response assay to identify agonists of OPRM1 homodimerization.; format: functional;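 further: U2OS cells expressing OPRM1 and beta-arrestin as split beta-galactosidase partners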
Chain of Mu-type opioid receptor (P35372 whole entry): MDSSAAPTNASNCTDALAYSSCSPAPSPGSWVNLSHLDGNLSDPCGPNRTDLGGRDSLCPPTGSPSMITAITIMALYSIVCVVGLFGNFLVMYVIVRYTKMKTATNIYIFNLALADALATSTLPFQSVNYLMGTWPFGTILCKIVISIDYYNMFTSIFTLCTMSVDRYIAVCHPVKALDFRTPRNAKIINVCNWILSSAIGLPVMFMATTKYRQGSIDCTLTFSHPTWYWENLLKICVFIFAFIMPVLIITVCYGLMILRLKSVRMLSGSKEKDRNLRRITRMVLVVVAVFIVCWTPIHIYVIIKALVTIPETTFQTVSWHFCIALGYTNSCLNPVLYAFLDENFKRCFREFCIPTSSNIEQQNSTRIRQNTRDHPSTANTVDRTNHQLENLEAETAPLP

[16] = target: 5-hydroxytryptamine receptor 5A (Homo sapiens, UniProt P47898); assay: Counterscreen for agonists of OPRM1-OPRD1 heterodimerization: luminescence-based cell-based high throughput dose response assay to identify agonists of 5-hydroxytryptamine (serotonin) 5A receptor (HTR5A). [Related pubchem assays (depositor defined):AID504326, AID504355, AID504692, AID504904, AID504905]; format: functional
Chain of 5-hydroxytryptamine receptor 5A (P47898 whole entry): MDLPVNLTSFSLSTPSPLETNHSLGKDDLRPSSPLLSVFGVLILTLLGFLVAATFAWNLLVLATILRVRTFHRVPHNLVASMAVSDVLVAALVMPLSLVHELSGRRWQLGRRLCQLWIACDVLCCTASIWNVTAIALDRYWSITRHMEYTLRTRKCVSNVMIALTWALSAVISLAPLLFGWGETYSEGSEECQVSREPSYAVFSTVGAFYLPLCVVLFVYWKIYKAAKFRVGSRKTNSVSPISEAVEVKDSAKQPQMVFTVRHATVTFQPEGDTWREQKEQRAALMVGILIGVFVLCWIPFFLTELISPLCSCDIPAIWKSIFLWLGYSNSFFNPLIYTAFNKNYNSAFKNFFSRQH

[17] = decrease of insulin promoter-GFP reporter – imaging, high-content screening, mouse beta cells (AID 1628); format: functional; details: MIN6
[18] = MIN6 cell viability loss – mouse insulinoma, cytotoxicity control, dose response (AID 2122); format: functional;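 further: confirmatory high-throughput counterscreen run to flag cytotoxic compounds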
[19] = microbe, parasite or virus in culture; format: functional; details: Mycobacterium tuberculosis
[20] = viability of PTEN-deleted HCT116 cells – cell-based, HCT116 PTEN knockout, dose response (AID 1047); format: functional;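 further: HCT116 colon tumor cells with PTEN knocked out; cells exposed to compound for 60 hours before readout; potency for loss of cell viability measured by luminescence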
[21] = viability of HCT116 lacking mutant beta-catenin – cell-based, human colon tumor, dose response (AID 1045); format: functional;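 further: HCT116 colon tumor cells with beta catenin knocked out; cells exposed to compound for 60 hours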
[22] = target: T4, Microphthalmia-associated transcription factor (Homo sapiens, UniProt O75030); assay: reducers of TRPM1 reporter luminescence, concentration series – cell-based, SK-MEL-5, cherry-picked, set 3, MITF inhibitor project, dose response (AID 493073); format: functional;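 further: SK-MEL-5 melanoma cells with luciferase driven by the MITF target TRPM1 promoter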
T4 sequence (O75030 whole entry): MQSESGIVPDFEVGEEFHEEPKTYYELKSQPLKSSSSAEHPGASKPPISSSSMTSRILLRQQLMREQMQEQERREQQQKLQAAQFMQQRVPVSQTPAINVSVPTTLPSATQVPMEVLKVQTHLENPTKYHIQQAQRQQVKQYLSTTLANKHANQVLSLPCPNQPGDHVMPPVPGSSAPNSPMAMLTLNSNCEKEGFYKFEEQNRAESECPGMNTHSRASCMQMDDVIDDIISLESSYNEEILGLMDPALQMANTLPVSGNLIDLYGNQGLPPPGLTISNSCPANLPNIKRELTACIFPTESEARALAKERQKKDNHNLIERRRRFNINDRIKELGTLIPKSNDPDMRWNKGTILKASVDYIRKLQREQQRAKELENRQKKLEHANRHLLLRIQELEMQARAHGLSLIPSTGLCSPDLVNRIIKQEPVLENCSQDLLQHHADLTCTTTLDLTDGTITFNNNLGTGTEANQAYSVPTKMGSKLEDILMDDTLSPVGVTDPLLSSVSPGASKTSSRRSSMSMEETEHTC

[23] = test system: A-375; assay: MITF: Counter assay: A375 proliferation Measured in Cell-Based System Using Plate Reader - 2084-03_Inhibitor_Dose_DryPowder_Activity. [Related pubchem assays (depositor defined):AID488944]; format: functional; details: Homo sapiens
[24] = reduced cellular PGC1a acetyl-lysine signal – cell-based, cherry-picked samples, dose response (AID 720514); format: functional;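 further: potency may reflect raised or lowered acetylation signal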
[25] = viability loss in Vero cells – cytotoxicity control for Vif-APOBEC3G degradation inhibitor project, dose response (AID 1117358); format: functional; details: Vero
[26] = target: Genome polyprotein (dengue virus type 2, UniProt P29990); assay: flavivirus cap methylation enzyme inhibition – biochemical, confirmation dose response, primary screen (AID 588689); format: functional
Chain of Genome polyprotein (P29990 2492-3391 limits assumed): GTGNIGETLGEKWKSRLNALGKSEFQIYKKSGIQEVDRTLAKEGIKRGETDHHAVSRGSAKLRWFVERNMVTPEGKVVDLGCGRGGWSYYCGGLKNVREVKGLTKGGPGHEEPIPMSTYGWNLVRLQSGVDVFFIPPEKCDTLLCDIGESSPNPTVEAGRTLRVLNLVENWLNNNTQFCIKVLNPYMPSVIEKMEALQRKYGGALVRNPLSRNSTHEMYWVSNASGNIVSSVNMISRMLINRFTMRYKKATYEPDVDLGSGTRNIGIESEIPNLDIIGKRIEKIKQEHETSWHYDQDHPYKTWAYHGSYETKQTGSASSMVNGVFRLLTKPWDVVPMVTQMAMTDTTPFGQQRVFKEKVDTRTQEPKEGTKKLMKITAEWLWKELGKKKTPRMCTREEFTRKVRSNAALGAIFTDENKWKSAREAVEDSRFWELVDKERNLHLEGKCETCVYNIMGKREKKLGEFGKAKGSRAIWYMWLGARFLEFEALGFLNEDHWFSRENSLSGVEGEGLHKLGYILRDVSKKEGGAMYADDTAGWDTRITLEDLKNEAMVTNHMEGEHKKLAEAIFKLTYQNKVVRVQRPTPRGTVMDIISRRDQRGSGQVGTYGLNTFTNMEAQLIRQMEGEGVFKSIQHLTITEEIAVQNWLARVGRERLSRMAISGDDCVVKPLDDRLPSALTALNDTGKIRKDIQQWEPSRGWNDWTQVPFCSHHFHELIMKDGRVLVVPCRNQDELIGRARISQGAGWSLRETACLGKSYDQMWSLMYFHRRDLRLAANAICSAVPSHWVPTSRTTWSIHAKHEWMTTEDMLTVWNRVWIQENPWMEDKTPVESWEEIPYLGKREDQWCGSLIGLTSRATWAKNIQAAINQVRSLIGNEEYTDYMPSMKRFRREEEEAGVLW

[27] = target: T5, Corticotropin-releasing factor receptor 2/Corticotropin-releasing factor-binding protein (Homo sapiens, UniProt P24387+Q13324); assay: Dose Response confirmation of uHTS hits for small molecule antagonists of the CRF-binding protein and CRF-R2 receptor complex.; format: functional; details: read-out: IC50_Mean
T5 sequence (Q13324 whole entry): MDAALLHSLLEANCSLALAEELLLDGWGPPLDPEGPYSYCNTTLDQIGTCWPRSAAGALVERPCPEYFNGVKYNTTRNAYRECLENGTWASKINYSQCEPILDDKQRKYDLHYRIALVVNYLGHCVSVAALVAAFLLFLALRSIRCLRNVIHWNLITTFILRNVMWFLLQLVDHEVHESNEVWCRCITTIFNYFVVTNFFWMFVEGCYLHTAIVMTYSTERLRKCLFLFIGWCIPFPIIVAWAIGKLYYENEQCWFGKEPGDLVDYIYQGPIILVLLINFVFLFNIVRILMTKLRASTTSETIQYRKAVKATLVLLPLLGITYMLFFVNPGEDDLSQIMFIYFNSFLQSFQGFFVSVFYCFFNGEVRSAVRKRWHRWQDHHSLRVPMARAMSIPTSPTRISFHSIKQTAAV
T5 sequence (P24387 whole entry): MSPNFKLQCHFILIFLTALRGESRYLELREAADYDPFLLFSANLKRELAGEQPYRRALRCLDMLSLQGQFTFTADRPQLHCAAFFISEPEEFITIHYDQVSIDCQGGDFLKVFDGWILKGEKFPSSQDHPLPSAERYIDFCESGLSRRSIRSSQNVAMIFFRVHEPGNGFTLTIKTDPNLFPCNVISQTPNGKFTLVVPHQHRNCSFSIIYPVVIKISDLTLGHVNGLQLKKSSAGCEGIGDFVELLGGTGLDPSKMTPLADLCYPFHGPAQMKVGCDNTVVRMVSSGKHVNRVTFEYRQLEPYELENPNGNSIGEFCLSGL

[28] = target: T5, Corticotropin-releasing factor receptor 2/Corticotropin-releasing factor-binding protein; assay: activators of CRF receptor 2 with binding protein – uHTS hits, confirmation (AID 602473); format: functional; details: read-out: EC50_Mean

In the case of `CCCn1nnnc1NC(=O)c1ccc2ccccc2c1`, the EC50 [1] is reported as 121 µM (active), the EC50 [2] is reported as 1.59 µM (active) and the EC50 [3] is reported as > 150 µM (not active). For the same molecule, the EC50 [4] was 0.505 µM (active), the EC50 [5] was > 180 µM (inactive) and the EC50 [6] was > 150 µM (not active). The CC50 [7] was 39.5 µM (active), the CC50 [8] was > 20 µM (active) and the IC50 [9] was 0.9 µM (active). The EC50 [10] was 82.2 µM (active).
In the case of `COc1ccc(Nc2[nH]nc(N)c2C(N)=O)cc1`, the AC50 [11] is reported as 2.71 µM (active), the IC50 [12] is reported as > 67.5 µM (inactive) and the IC50 [13] is reported as > 67.5 µM (inactive).
In the case of `OCC1(CCc2ccccc2)CCN(Cc2cc(F)ccc2-n2cccn2)CC1`, the EC50 [14] is reported as > 92.5 µM (inactive), the EC50 [15] is reported as > 92.5 µM (inactive) and the EC50 [16] is reported as > 92.5 µM (inactive).
With `COc1ccc(-c2cc(-c3ccccc3)c(C#N)c([S+](C)[O-])n2)cc1` (stereo unspecified) the IC50 [17] was 2.05 µM (active), the IC50 [18] was 2.76 µM (active) and the CC50 [19] was 23 µM (active). The EC50 [20] was 3.33 µM (active), the EC50 [21] was 2.12 µM (active) and the AC50 [22] was 11.8 µM (active). For the same molecule, the AC50 [23] was 20.2 µM (active), the AC50 [24] was 4.89 µM (active) and the CC50 [25] was 31.4 µM (active).
With `COc1ccccc1/C=C1\SC(=S)N(NS(=O)(=O)c2ccccc2)C1=O` the EC50 [1] was > 150 µM (inconclusive), the EC50 [4] was 0.94 µM (active) and the EC50 [5] was > 180 µM (inactive). For the same molecule, the IC50 [26] was 36.2 µM (active) and the EC50 [10] was 18.2 µM (active).
With `C/C(CC(=O)Nc1ccc(Cl)cc1C(F)(F)F)=N\NC(=O)c1cccs1` the IC50 [12] was > 67.6 µM (inactive) and the IC50 [13] was > 67.6 µM (inactive).
With `Cc1nc(-c2ccncc2)nc(NCCNc2ccc(C(F)(F)F)cn2)c1Cl` the IC50 [12] was > 67.5 µM (inactive), the IC50 [13] was > 67.5 µM (inactive) and the IC50 [27] was > 47.1 µM (inactive). For the same molecule, the EC50 [28] was > 53 µM (inactive).

Reference: ChEMBL document CHEMBL1201862, “PubChem BioAssay data set” (2004)
